“Also recorded” adds a separate entry of the source.
Assays:
HT-29 colon cancer cells = test: MTT cell viability assay in HT-29 cells; assay type: cell-based; conditions: for IC50: 4 days treatment
Experimental: (§1) The PRMT5 inhibitory activity of the compounds from the screen was confirmed using both AlphaLISA and an MTT [(3-(4,5-dimethylthiazolyl-2)-2,5-diphenyltetrazolium bromide)] assay (PerkinElmer, Waltham, MA). For the MTT assay, cells were seeded at 90% confluence in 96-well plates and titrated with different dosages of compound (IIa) for 4 days. Media was then removed and 100 μl of MTT (Sigma-Aldrich, St. Louis, MO) was added per well. Cells were incubated for 2 hours at 37° C. before adding 100 μl of DMSO to each well and quantified with the SYNERGY™ H1 Multi-Mode Reader (BioTek Instruments Inc., Winooski, VT).
(§2) In order to identify small-molecule PRMT5 inhibitors with increased efficacy compared to compound (IIa), lead optimization of compound (IIa) was performed. Briefly, the pyrozolo-pyrimidine core was maintained and peripheral groups were either added or modified. Compounds were tested to identify PRMT5 inhibitors and their corresponding IC50 values using an MTT assay. For the MTT assay cells (HT-29 or PANC1) were seeded at 90% confluence in 96-well plates and titrated with different dosages of compound (IIa) for 4 days. Media was then removed and 100 μl of MTT (Sigma-Aldrich) was added per well. Cells were incubated for 2 hours at 37° C. before adding 100 μl of DMSO to each well and quantified with the Synergy H1 Multi-Mode Reader (BioTek Instruments Inc., Winooski, VT).

[1] = tested on: PANC1 pancreatic cancer cells; test: MTT cell viability assay in PANC1 cells; assay type: cell-based; conditions: for IC50: 4 days treatment
Experimental: as §1, §2

PANC1 cells = test: PANC1 subcutaneous xenograft tumor efficacy study in NSG mice; assay type: in vivo; conditions: 20 mg/kg intraperitoneally 3×/week, vs vehicle control, n=4
Experimental: (§3) NSG (NOD scid gamma) mice were obtained from the In Vivo Therapeutics Core at Indiana University School of Medicine. After acclimation for 7 days, NSG mice (6-8 weeks old) were xenografted with mycoplasma-free PANC1 or HT29 cells subcutaneously (1×10^7 PANC1 or 3×10^6 HT29 cells used per mouse in 0.2 ml of a 1:1 mix of phosphate-buffered saline and MATRIGEL™) (BD Biosciences, San Jose, CA). Mice were randomized when tumor volumes reached about 100 mm^3. Mice were treated with either vehicle control or 20 mg/kg of compound (Ia) (drug stock dissolved in 1:1 CREMOPHOR™:ethanol solution) intraperitoneally 3 times per week. Tumor volumes and body weights were measured twice a week. The study was performed in accordance with the guidelines and standards of the Institutional Animal Care and Use Committee (IACUC). […] NSG (NOD scid gamma) mice were obtained from the In Vivo Therapeutics Core at Indiana University School of Medicine. After acclimation for 7 days, NSG mice (6-8 weeks old) were xenografted with mycoplasma-free PANC1 or HT29 cells subcutaneously (1×10^7 PANC1 or 3×10^6 HT29 cells used per mouse in 0.2 ml of a 1:1 mix of phosphate-buffered saline and MATRIGEL™) (BD Biosciences, San Jose, CA). Mice were randomized when tumor volumes reached about 100 mm^3. […] Tumor volumes and body weights were measured twice a week. […]

HT29 cells = test: HT29 subcutaneous xenograft tumor efficacy study in NSG mice; assay type: in vivo; conditions: 20 mg/kg intraperitoneally 3×/week, vs vehicle control, n=4
Experimental: as §3

[2] = Body weight of xenografted NSG mice during treatment; assay type: in vivo; conditions: 20 mg/kg intraperitoneally 3×/week, over the course of treatment
Experimental: NSG (NOD scid gamma) mice were obtained from the In Vivo Therapeutics Core at Indiana University School of Medicine. After acclimation for 7 days, NSG mice (6-8 weeks old) were xenografted with mycoplasma-free PANC1 or HT29 cells subcutaneously (1×10^7 PANC1 or 3×10^6 HT29 cells used per mouse in 0.2 ml of a 1:1 mix of phosphate-buffered saline and MATRIGEL™) (BD Biosciences, San Jose, CA). Mice were randomized when tumor volumes reached about 100 mm^3. Mice were treated with either vehicle control or 20 mg/kg of compound (Ia) (drug stock dissolved in 1:1 CREMOPHOR™:ethanol solution) intraperitoneally 3 times per week. Tumor volumes and body weights were measured twice a week. The study was performed in accordance with the guidelines and standards of the Institutional Animal Care and Use Committee (IACUC). […] NSG (NOD scid gamma) mice were obtained from the In Vivo Therapeutics Core at Indiana University School of Medicine. After acclimation for 7 days, NSG mice (6-8 weeks old) were xenografted with mycoplasma-free PANC1 or HT29 cells subcutaneously (1×10^7 PANC1 or 3×10^6 HT29 cells used per mouse in 0.2 ml of a 1:1 mix of phosphate-buffered saline and MATRIGEL™) (BD Biosciences, San Jose, CA). Mice were randomized when tumor volumes reached about 100 mm^3. Mice were treated with either vehicle control or 20 mg/kg of compound (IIa) (drug stock dissolved in 1:1 CREMOPHOR™:ethanol solution) intraperitoneally 3 times per week. Tumor volumes and body weights were measured twice a week. The study was performed in accordance with the guidelines and standards of the Institutional Animal Care and Use Committee (IACUC).

PRMT5 = biological target: T1, PRMT5 (Homo sapiens, UniProt O14744); test: AlphaLISA PRMT5 methylation assay (biotin-histone H4R3, SAM); assay type: biochemical; conditions: PRMT5 methylation of histone H4R3, in vitro; read-out: IC50 using AlphaLISA
T1 construct: Flag; made in house; host or cells: 293 cells
T1 sequence (O14744 whole entry): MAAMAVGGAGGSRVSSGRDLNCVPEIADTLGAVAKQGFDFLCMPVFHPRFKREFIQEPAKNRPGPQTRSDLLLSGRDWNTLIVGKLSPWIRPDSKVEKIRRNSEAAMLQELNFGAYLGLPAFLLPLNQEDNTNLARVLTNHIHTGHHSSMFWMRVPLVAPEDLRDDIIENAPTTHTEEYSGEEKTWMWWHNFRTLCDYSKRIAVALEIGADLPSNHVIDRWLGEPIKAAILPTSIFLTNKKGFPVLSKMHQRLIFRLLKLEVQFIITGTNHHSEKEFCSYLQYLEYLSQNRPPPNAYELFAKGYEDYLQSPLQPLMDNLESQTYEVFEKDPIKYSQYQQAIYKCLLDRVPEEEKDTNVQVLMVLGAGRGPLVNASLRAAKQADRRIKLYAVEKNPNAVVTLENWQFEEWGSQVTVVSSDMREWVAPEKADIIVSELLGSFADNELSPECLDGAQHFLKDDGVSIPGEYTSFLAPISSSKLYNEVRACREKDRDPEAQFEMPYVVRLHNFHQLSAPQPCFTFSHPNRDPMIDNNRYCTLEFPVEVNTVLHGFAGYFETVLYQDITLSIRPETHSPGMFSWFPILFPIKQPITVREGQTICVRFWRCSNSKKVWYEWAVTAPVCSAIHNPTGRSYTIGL
T1 sequence (Q9BQA1 whole entry partner): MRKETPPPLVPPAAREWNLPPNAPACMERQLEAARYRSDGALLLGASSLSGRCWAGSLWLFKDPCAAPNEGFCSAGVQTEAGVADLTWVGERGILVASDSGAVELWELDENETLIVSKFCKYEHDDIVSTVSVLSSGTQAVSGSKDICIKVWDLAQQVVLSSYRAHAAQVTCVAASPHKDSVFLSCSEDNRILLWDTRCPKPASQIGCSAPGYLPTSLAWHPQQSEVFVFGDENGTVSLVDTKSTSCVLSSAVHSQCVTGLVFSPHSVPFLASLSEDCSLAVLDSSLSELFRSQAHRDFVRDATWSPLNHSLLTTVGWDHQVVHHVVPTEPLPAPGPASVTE
Experimental: FIG. 1 is a schematic illustration of the AlphaLISA technique for the identification of small-molecule PRMT5 inhibitors. Biotinylated substrate (histone H4) is incubated with PRMT5 and methyl donor, S-adenosyl-1-methionine (SAM). PRMT5 symmetrically dimethylates the third arginine (R3) on biotin-H4 to form biotin-H4R3me2. This product is recognized by Acceptor beads specific for this methylation site. Donor beads have a streptavidin tag and bind to biotin-H4. Interaction between the Acceptor and Donor beads emits a chemiluminescent signal, which is detected by an ENVISION™ Reader (PerkinElmer, Waltham, MA). The methylation activity of PRMT5 is proportional to the intensity of this signal.
In order to identify PRMT5 inhibitors, the AlphaLISA technique (PerkinElmer, Waltham, MA) was adapted to an assay that could precisely quantify PRMT5 dimethylation of its substrate in a 384-well HTS platform (FIG. 1). The AlphaLISA high-throughput screen comprises incubating a biotinylated substrate (e.g., histone H4), PRMT5, and a methyl donor (e.g., S-adenosyl-1-methionine (SAM)); PRMT5 dimethylates the biotinylated substrate and the dimethylated biotinylated substrate is recognized by Acceptor beads specific for the methylation site. Donor beads comprising a tag (e.g., streptavadin) bind to the biotinylated substrate, and interaction between the Acceptor beads and Donor beads emits a signal (e.g., chemiluminescent signal), which can be detected. The methylation activity of PRMT5 is proportional to the intensity of the signal.
In one embodiment of the method used to identify the compounds disclosed herein, PRMT5 enzyme was purified with anti-Flag-M2 beads (Sigma-Aldrich, St. Louis, MO) from 293 cells overexpressing the Flag-PRMT5 protein (Wei et al., Proc Natl Acad Sci USA, 2013; 110: 13516-13521). The enzyme prep was diluted at 1:10 in assay buffer (30 mM Tris, pH 8.0, 1 mM DTT, 0.01% BSA, 0.01% Tween-20) before use. […] The plates were read using an ENVISION™ Reader (PerkinElmer, Waltham, MA).

[3] = tested on: PDAC cells (PANC1, MiaPaCa2 and AsPC1); test: MTT cell viability assay in PDAC cell lines; assay type: cell-based; conditions: for cell viability in PDAC cells (PANC1, MiaPaCa2, AsPC1), MTT: increasing concentrations; for IC50: range over PANC1, MiaPaCa2 and AsPC1
Experimental: (§4) The PRMT5 inhibitory activity of the compounds from the screen was confirmed using both AlphaLISA and an MTT [(3-(4,5-dimethylthiazolyl-2)-2,5-diphenyltetrazolium bromide)] assay (PerkinElmer, Waltham, MA). For the MTT assay, cells were seeded at 90% confluence in 96-well plates and titrated with different dosages of compound (IIa) for 4 days. Media was then removed and 100 μl of MTT (Sigma-Aldrich, St. Louis, MO) was added per well. Cells were incubated for 2 hours at 37° C. before adding 100 μl of DMSO to each well and quantified with the SYNERGY™ H1 Multi-Mode Reader (BioTek Instruments Inc., Winooski, VT). The expression of PRMT5 was examined in pancreatic ductal adenocarcinoma cells at multiple stages of disease progression and in multiple colorectal cancer cell lines. Pancreatic control (HPNE) and cancer cell lines (PANC1, MiaPaCa2 and AsPC1) were grown in Dulbecco's Modified Eagle Medium (DMEM) (GE Healthcare, Little Chalfont, UK), supplemented with 1% of penicillin/streptomycin, 10% fetal bovine serum (FBS). Colon control (FHC) and cancer (HT29, HCT116, and DLD1) cell lines were maintained in RPMI 1640 Medium (Roswell Park Memorial Institute Medium) (GE Healthcare, Little Chalfont, UK), containing 1% penicillin/streptomycin and 10% FBS, while FHC cells were cultured under the same condition with further addition of 25 mM HEPES (4-(2-hydroxyethyl)-1-piperazineethanesulfonic acid), 10 ng/ml cholera toxin, 0.005 mg/ml insulin, 0.005 mg/ml transferring, and 100 ng/ml hydrocortisone. All cell lines were cultured at 37° C. under 5% CO2. The PDAC and CRC cell lines described above were treated with increasing concentrations of compound (IIa) or the commercially available PRMT5 inhibitor EPZ015666 [drawing 12] and quantified for cell viability using the MTT assay described above. […] A soft agar experiment was also performed to determine the effect of compound (IIa) on colony growth.

[4] = tested on: CRC cells (HT29, HCT116 and DLD1); test: MTT cell viability assay in CRC cell lines; assay type: cell-based; conditions: for cell viability in CRC cells (HT29, HCT116, DLD1), MTT: increasing concentrations; for IC50: range over HT29, HCT116 and DLD1
Experimental: as §4

NF-κB [5] = test: NF-κB luciferase assay in PANC1 cells; assay type: cell-based; conditions: increasing concentrations
Description: (§5) Previously, it was discovered that PRMT5 activates NF-κB through methylation of its p65 subunit in HEK293 cells (Wei et al., Proc Natl Acad Sci USA, 2013; 110: 13516-13521; Wei et al., Cell Cycle, 2013; 13: 32-41). As shown in FIGS. 11A and 11B, overexpression of PRMT5 enhances NF-κB activity, while PRMT5 knockdown causes the opposite effect in both PANC1 (FIG. 11A) and HT-29 (FIG. 11B) cells. To determine if compound (IIa) decreases NF-κB activity, cells transfected with a NF-κB luciferase construct were treated with increasing concentrations of compound (IIa) or the control compound EPZ015666.

NF-κB [6] = test: NF-κB luciferase assay in HT29 cells; assay type: cell-based; conditions: increasing concentrations
Description: as §5

Question: For `Cc1ccc(-n2ncc3c(NCc4cccnc4)nc(Cl)nc32)cc1` [compound (Ia)], which IC50 (HT-29 colon cancer cells) is on record?
Answer: The IC50 was 2.2 µM.

Question: What about the IC50 (HT-29 colon cancer cells; Homo sapiens, HT-29, 96 h) of the same compound?
Answer: Its IC50 is 2 µM.

Question: What about the “cell viability in CRC cells (HT29), MTT” value (HT-29 colon cancer cells; increasing concentrations) of the same compound?
Answer: Its value is “decreased significantly”.

Question: And the “cell viability in PDAC cells (PANC1), MTT” value ([1]; increasing concentrations)?
Answer: The value was “decreased significantly”.

Question: What about the “tumor growth (tumor volume), PANC1 xenograft” value (PANC1 cells) of the same compound?
Answer: The value was “significant tumor inhibition effect; also recorded: inhibition of tumor growth”.

Question: What about the “tumor growth (tumor volume), HT29 xenograft” value (HT29 cells) of the same compound?
Answer: The value was “significant tumor inhibition effect; also recorded: inhibition of tumor growth”.

Question: And the “body weight, HT29 model” value [2]?
Answer: Its value is “did not visibly affect the body weight; also recorded: no significant changes in body weight”.

Question: And the “body weight, PANC1 model” value [2]?
Answer: The value was “did not visibly affect the body weight; also recorded: no significant changes in body weight”.

Question: With `Clc1ccc(-n2ncc3c(NCC4CCCO4)nc(Cl)nc32)cc1` (centres unmarked) [compound (Ig)] as the compound, how does the IC50 (HT-29 colon cancer cells) read?
Answer: Its IC50 is 7 µM.

Question: What about the IC50 [1] of the same compound?
Answer: The IC50 was 11 µM.

Question: Which IC50 ([1]; Homo sapiens, PANC-1, 96 h) does the source give for `Clc1ccc(-n2ncc3c(NCCN4CCCC4)nc(Cl)nc32)cc1` [compound (Ib)] here?
Answer: Its IC50 is 11 µM.

Question: What does the source list for `COc1cc(C)c(Oc2cc(C)cc(O)c2O)c(O)c1` [compound (IVa)]?
Answer: IC50 (PRMT5): ~16.5 µM; cell viability in PDAC cells (PANC1, MiaPaCa2, AsPC1), MTT [3]: decreased significantly; IC50 [3]: 22 to 51 µM; cell viability in CRC cells (HT29, HCT116, DLD1), MTT [4]: decreased significantly; IC50 [4]: 35 to 50 µM

Question: For `O=C(NC[C@H]1C[C@@H]2CC[N@@]1C[C@@H]2CN1CCC(Cc2ccccc2)CC1)c1ccc2c(c1)OCO2` [compound (IIIa)], which IC50 (PRMT5) is on record?
Answer: The IC50 was ~1.5 µM.

Question: What about the “cell viability in PDAC cells (PANC1, MiaPaCa2, AsPC1), MTT” value [3] of the same compound?
Answer: Its value is “decreased significantly”.

Question: And the IC50 [3]?
Answer: The IC50 was 8.5 to 12.5 µM.

Question: And the “cell viability in CRC cells (HT29, HCT116, DLD1), MTT” value [4]?
Answer: The value was “decreased significantly”.

Question: And the IC50 [4]?
Answer: Its IC50 is 5 to 11 µM.

Question: Which IC50 (HT-29 colon cancer cells; Homo sapiens, HT-29, 96 h) does the source give for `Clc1ccc(-n2ncc3c(NCC4CCCO4)nc(Cl)nc32)cc1` (centres unmarked) [compound (If)] here?
Answer: The IC50 was 7 µM.

Question: And the IC50 ([1]; Homo sapiens, PANC-1, 96 h)?
Answer: Its IC50 is 8 µM.

Question: Which results are given for `O=C(NC[C@H](O)CN1CCc2ccccc2C1)c1cc(NC2COC2)ncn1` [EPZ015666, reference compound]?
Answer: cell viability in PDAC cells (PANC1, MiaPaCa2, AsPC1), MTT [3]: lower efficacy; IC50 [3]: 50 to 95 µM; cell viability in CRC cells (HT29, HCT116, DLD1), MTT [4]: lower efficacy; IC50 [4]: 180 to 195 µM; NF-κB activation (luciferase), PANC1 (NF-κB [5]): much higher concentration; also recorded: needed a higher concentration; NF-κB activation (luciferase), HT29 (NF-κB [6]): much higher concentration; also recorded: needed a higher concentration

— patent US12516052B2, “Methyltransferase 5 (PRMT5) inhibitors and methods of treatment” (THE TRUSTEES OF INDIANA UNIVERSITY, priority 2016, dated 2026)
